Reference: US10344019B2 (priority 2010, dated 2019)
Like-named read-outs stand apart in the source and are kept apart here.

Key:
Assay in all cases: microbe, parasite or virus in culture
Format in all cases: cell-based
[1] = test system: HCV 1b RLuc cells (dicistronic genotype 1b Con1 replicon, RLuc reporter); details: Hepatitis C virus, read-out: 1b (nM)
Protocol: (§1) Evaluation of cell-based anti-HCV activity: Antiviral potency (EC50) was determined using a Renilla luciferase (RLuc)-based HCV replicon reporter assay. To perform the assay for genotype 1 and 2a JFH-1, HCV 1b RLuc cells (harboring a dicistronic genotype 1b Con1 replicon that encodes a RLuc reporter), or HCV 1a RLuc cells (harboring a dicistronic genotype 1a H77 replicon that encodes a RLuc reporter), or HCV 2a JFH-1 Rluc cells (harboring a dicistronic genotype 2a JFH-1 replicon that encodes a RLuc reporter) were dispensed into 384-well plates. To perform the assay for genotype 2a (with M31 present) or 2b, HCV 2a Rluc or 2b Rluc cells (both with M31 present) harboring a dicistronic NS5A chimeric genotype 2a JFH-1 replicon that encodes a RLuc reporter and either genotype 2a J6 strain NS5A gene or genotype 2b MD2b-1 NS5A gene (based on Los Alamos HCV database isolates, both with M31 present) respectively, were dispensed into 384-well plates. To perform the assay for genotype 3 and 4, HCV 3a RLuc or 4a Rluc cells harboring a dicistronic NS5A chimeric genotype 1b Con1 replicon that encodes a RLuc reporter and either a consensus genotype 3a NS5A gene or genotype 4a NS5A gene (based on Los Alamos HCV database isolates) respectively, were dispensed into 384-well plates. Compounds were re-suspended in DMSO at a concentration of 10 mM and serially diluted in DMSO either manually or using an automated pipeting instrument. Serially diluted compounds were mixed with cell culture media and added to the seeded cells. […] 72 hours later, cells were lysed and Renilla luciferase activity quantified as recommended by the manufacturer (Promega-Madison, Wis.). Non-linear regression was performed to calculate EC50 values.

[2] = test system: HCV 2a JFH-1 Rluc cells (dicistronic genotype 2a JFH-1 replicon, RLuc reporter); details: Hepatitis C virus, genotype 2a JFH-1 replicon, read-out: 2a JFH
Protocol: as §1

[3] = test system: HCV 1a RLuc cells (dicistronic genotype 1a H77 replicon, RLuc reporter); details: Hepatitis C virus, read-out: 1a
Protocol: as §1

[4] = test system: HCV 4a Rluc cells (NS5A chimeric genotype 1b Con1 replicon with genotype 4a NS5A gene); details: Hepatitis C virus, read-out: 4a
Protocol: as §1

[5] = test system: HCV 3a RLuc cells (NS5A chimeric genotype 1b Con1 replicon with consensus genotype 3a NS5A gene); details: Hepatitis C virus
Protocol: as §1

[6] = genotype 1a H77 replicon, RLuc reporter
[7] = read-out: 3a, genotype 3a NS5A chimeric 1b Con1 replicon
[8] = 72 h, Table 2, genotype 1a H77 replicon, 72 hours
[9] = read-out: 3a, Table 2, genotype 3a NS5A chimeric replicon
[10] = read-out: 3a, genotype 3a replicon

Row | Structure (SMILES) | EC50 [1] | EC50 [4] | EC50 ([1]; 72 h) | EC50 [2] | EC50 ([3]; genotype 1a replicon) | EC50 [5, 10] | further results
1 | COC(=O)N[C@H](C(=O)N1CCC[C@H]1c1nc2ccc3cc(-c4ccc5cc(-c6cnc([C@@H]7CCCN7C(=O)[C@H](NC(=O)OC)c7ccccc7)[nH]6)ccc5c4)ccc3c2[nH]1)[C@@H](C)OC [Example 271] | 0.008 nM | 0.001 to 0.99 nM |  |  |  |  | EC50 ([2]; RLuc reporter): 0.001 to 0.999 nM; EC50 [3, 6]: 0.001 to 0.999 nM; EC50 [5, 7]: 0.001 to 0.99 nM
2 | COC(=O)N[C@H](C(=O)N1[C@@H]2CC[C@@H](C2)[C@H]1c1ncc(-c2ccc3c(c2)CCc2cc(-c4cnc([C@@H]5CCCN5C(=O)[C@@H](NC(=O)OC)C5CCOCC5)[nH]4)ccc2-3)[nH]1)C(C)C [Example 86] |  | 0.001 to 0.99 nM | 0.034 nM |  |  |  | EC50 ([2]; 72 h, Table 2, 72 hours): 0.001 to 0.999 nM; EC50 [3, 8]: 0.001 to 0.999 nM; EC50 [5, 9]: 1 to 4.99 nM
3 | COC(=O)N[C@H](C(=O)N1CCC[C@H]1c1ncc(-c2ccc3c4ccc(-c5cnc([C@@H]6CCCN6C(=O)[C@@H](NC(=O)OC)[C@@H](C)OC)[nH]5)cc4c4ccccc4c3c2)[nH]1)C(C)C [Example 311] | 0.025 nM | 0.001 to 0.99 nM |  | 0.001 to 0.999 nM | 0.001 to 0.999 nM | 0.001 to 0.99 nM | 
4 | COC(=O)N[C@H](C(=O)N1CC2(CC2)C[C@H]1c1ncc(-c2ccc3c(c2)C(F)(F)c2cc(-c4ccc5nc([C@@H]6[C@H]7CC[C@H](C7)N6C(=O)[C@@H](c6ccccc6)N6CCOCC6)[nH]c5c4)ccc2-3)[nH]1)C(C)C [Example 96] |  | 0.001 to 0.99 nM | 0.006 nM |  |  |  | EC50 ([2]; 72 h, Table 2, 72 hours): 1 to 44 nM; EC50 [3, 8]: 0.001 to 0.999 nM; EC50 [5, 9]: 1 to 4.99 nM
5 | COC(=O)N[C@H](C(=O)N1CCC[C@H]1c1ncc(-c2ccc3c(c2)OCc2c-3ccc(-c3cnc([C@@H]4CCCN4C(=O)[C@@H](NC(=O)OC)C(C)C)[nH]3)c2F)[nH]1)C(C)C [Example 331] | 0.006 nM | 0.001 to 0.99 nM |  | 0.001 to 0.999 nM | 0.001 to 0.999 nM | 0.001 to 0.99 nM | 
6 | COC(=O)N[C@H](C(=O)N1[C@@H]2C[C@@H]2C[C@H]1c1nc2ccc3cc(-c4ccc(-c5cnc([C@@H]6[C@H]7CC[C@H](C7)N6C(=O)[C@H](NC(=O)OC)c6ccccc6)[nH]5)cc4)ccc3c2[nH]1)C(C)C [Example 337] | 0.01 nM | 0.001 to 0.99 nM |  | 0.001 to 0.999 nM | 0.001 to 0.999 nM | 0.001 to 0.99 nM | 
7 | COC(=O)N[C@H](C(=O)N1CC2(C[C@H]1c1nc3ccc(-c4ccc5c(c4)C(F)(F)c4cc(-c6cnc([C@@H]7CCCN7C(=O)[C@H](NC(=O)OC)c7ccccc7)[nH]6)ccc4-5)cc3[nH]1)OCCO2)C1CCOCC1 [Example 59] |  | 0.001 to 0.99 nM | 0.016 nM |  |  |  | EC50 ([2]; 72 h, Table 2, 72 hours): 0.001 to 0.999 nM; EC50 [3, 8]: 0.001 to 0.999 nM; EC50 [5, 9]: 0.001 to 0.99 nM
8 | COC(=O)N[C@H](C(=O)N1CCC[C@H]1c1ncc(-c2ccc3c(c2)CCc2cc(-c4cnc([C@@H]5[C@H]6CC[C@H](C6)N5C(=O)[C@@H](NC(=O)OC)C5CCOCC5)[nH]4)ccc2-3)[nH]1)C(C)C [Example 92] |  | 0.001 to 0.99 nM | 0.047 nM |  |  |  | EC50 ([2]; 72 h, Table 2, 72 hours): 0.001 to 0.999 nM; EC50 [3, 8]: 0.001 to 0.999 nM; EC50 [5, 9]: 0.001 to 0.99 nM
9 | COC(=O)N[C@H](C(=O)N1[C@@H]2C[C@@H]2C[C@H]1c1nc2ccc3cc(-c4ccc(-c5cnc([C@@H]6[C@H]7CC[C@H](C7)N6C(=O)[C@@H](NC(=O)OC)C6CCOCC6)[nH]5)c(F)c4)ccc3c2[nH]1)C(C)C [Example 320] | 0.01 nM | 0.001 to 0.99 nM |  | 0.001 to 0.999 nM | 0.001 to 0.999 nM | 0.001 to 0.99 nM | 
10 | COC(=O)N[C@H](C(=O)N1[C@@H]2CC[C@@H](C2)[C@H]1c1ncc(-c2ccc(-c3ccc4cc(-c5cnc([C@@H]6CCCN6C(=O)[C@H](NC(=O)OC)c6ccccc6)[nH]5)ccc4c3)cc2)[nH]1)C1CCOCC1 [Example 71] |  | 0.001 to 0.99 nM | 0.013 nM |  |  |  | EC50 ([2]; 72 h, Table 2, 72 hours): 0.001 to 0.999 nM; EC50 [3, 8]: 0.001 to 0.999 nM; EC50 [5, 9]: 0.001 to 0.99 nM
11 | COC(=O)N[C@@H](C)C(=O)N1CCC[C@H]1c1ncc(-c2ccc3c(c2)COc2c-3ccc3cc(-c4cnc([C@@H]5CCCN5C(=O)[C@H](NC(=O)OC)c5ccccc5)[nH]4)ccc23)[nH]1 [Example 7] |  | 0.001 to 0.99 nM | 0.008 nM |  |  |  | EC50 ([2]; 72 h, Table 1, 72 hours): 0.001 to 0.999 nM; EC50 ([3]; 72 h, Table 1, genotype 1a H77 replicon, 72 hours): 0.001 to 0.999 nM; EC50 ([5]; read-out: 3a, Table 1, genotype 3a NS5A chimeric replicon): 0.001 to 0.99 nM
12 | COC(=O)NC(C(=O)N1CCC[C@H]1c1nc(-c2ccc3cc(-c4ccc5c(ccc6nc([C@@H]7CCCN7C(=O)[C@@H](NC(=O)OC)C(C)C)[nH]c65)c4)ccc3c2)c[nH]1)c1cccnc1 (stereo partly drawn) [Example 228] | 0.015 nM | 0.001 to 0.99 nM |  |  |  |  | EC50 ([2]; RLuc reporter): 0.001 to 0.999 nM; EC50 [3, 6]: 0.001 to 0.999 nM; EC50 [5, 7]: 0.001 to 0.99 nM
13 | COC(=O)N[C@H](C(=O)N1CCC[C@H]1c1ncc(-c2cc3c4c(c2)OCc2cc(-c5cnc([C@@H]6CCCN6C(=O)[C@@H](NC(=O)OC)C6CCCC6)[nH]5)cc(c2-4)OC3)[nH]1)C1CCCC1 [Example 377] | 0.022 nM | 0.001 to 0.99 nM |  | 0.001 to 0.999 nM | 0.001 to 0.999 nM | 0.001 to 0.99 nM | 
14 | COC(=O)N[C@H](C(=O)N1CCC[C@H]1c1nc(-c2ccc3c(c2)C(F)(F)c2cc(-c4ccc5nc([C@@H]6CCCN6C(=O)[C@@H](NC(=O)OC)C6CCOCC6)[nH]c5c4)ccc2-3)c[nH]1)C(C)C [Example 220] | 0.011 nM | 0.001 to 0.99 nM |  |  |  |  | EC50 ([2]; RLuc reporter): 0.001 to 0.999 nM; EC50 [3, 6]: 0.001 to 0.999 nM; EC50 [5, 7]: 1 to 4.99 nM
15 | COC(=O)N[C@H](C(=O)N[C@H](c1nc(-c2ccc3c(c2)C(F)(F)c2cc(-c4ccc5nc([C@@H]6CCCN6C(=O)[C@H](NC(=O)OC)c6ccccc6)[nH]c5c4)ccc2-3)c[nH]1)C(C)C)C(C)C [Example 226] | 0.009 nM | 0.001 to 0.99 nM |  |  |  |  | EC50 ([2]; RLuc reporter): 1 to 44 nM; EC50 [3, 6]: 1 to 44 nM; EC50 [5, 7]: 1 to 4.99 nM
16 | COC(=O)N[C@H](C(=O)N1CC2(CC2)C[C@H]1c1nc(-c2ccc3c(c2)C(F)(F)c2cc(-c4ccc5nc([C@@H]6[C@H]7CC[C@H](C7)N6C(=O)[C@@H](NC(=O)OC)C(C)C)[nH]c5c4)ccc2-3)c(Cl)[nH]1)C(C)C [Example 382] | 0.006 nM | 0.001 to 0.99 nM |  | > 44 nM | 0.001 to 0.999 nM | > 5 nM | 
17 | COC(=O)N[C@H](C(=O)N1CCC[C@H]1c1ncc(-c2ccc(C#Cc3ccc4c(ccc5nc([C@@H]6CCCN6C(=O)[C@@H](NC(=O)OC)C6CCOCC6)[nH]c54)c3)cc2)[nH]1)C(C)C [Example 229] | 0.018 nM | 0.001 to 0.99 nM |  |  |  |  | EC50 ([2]; RLuc reporter): 0.001 to 0.999 nM; EC50 [3, 6]: 0.001 to 0.999 nM; EC50 [5, 7]: 1 to 4.99 nM
18 | COC(=O)NC(C(=O)N1[C@@H]2CC[C@@H](C2)[C@H]1c1ncc(-c2ccc(-c3ccc4c(ccc5nc([C@@H]6C[C@H]7C[C@H]7N6C(=O)[C@@H](NC(=O)OC)C(C)C)[nH]c54)c3)cc2F)[nH]1)[C@@H](C)OC (stereo partly drawn) [Example 321] | 0.006 nM | 0.001 to 0.99 nM |  | 0.001 to 0.999 nM | 0.001 to 0.999 nM | 0.001 to 0.99 nM | 
19 | COC(=O)N[C@@H](C(=O)N1CCC[C@H]1c1ncc(-c2ccc3cc(-c4ccc5c(c4)CCc4nc([C@@H]6CCCN6C(=O)[C@@H](NC(=O)C6CC6)C6CCOCC6)[nH]c4-5)ccc3c2)[nH]1)c1ccccc1 [Example 280] | 0.047 nM | 0.001 to 0.99 nM |  |  |  |  | EC50 ([2]; RLuc reporter): 1 to 44 nM; EC50 [3, 6]: 1 to 44 nM; EC50 [5, 7]: 0.001 to 0.99 nM
20 | COC(=O)N[C@H](C(=O)N1CCC[C@H]1c1ncc(-c2ccc3cc(-c4ccc(-c5cnc([C@@H]6[C@H]7CC[C@H](C7)N6C(=O)[C@H](NC(=O)OC)c6ccccc6)[nH]5)cc4)ccc3c2)[nH]1)C1CCOCC1 [Example 49] |  | 0.001 to 0.99 nM | 0.014 nM |  |  |  | EC50 ([2]; 72 h, Table 2, 72 hours): 0.001 to 0.999 nM; EC50 [3, 8]: 0.001 to 0.999 nM; EC50 [5, 9]: 0.001 to 0.99 nM
21 | CC#Cc1cc(-c2cnc([C@@H]3CCCN3C(=O)[C@@H](NC(=O)OC)C(C)C)[nH]2)ccc1-c1ccc(-c2cnc([C@@H]3CCCN3C(=O)[C@@H](NC(=O)OC)C(C)C)[nH]2)cc1 [Example 342] | 0.01 nM | 0.001 to 0.99 nM |  | 0.001 to 0.999 nM | 0.001 to 0.999 nM | 0.001 to 0.99 nM | 
